Experimental data published in patent US20190209581A1, “DOSAGE REGIMEN FOR TREATMENT OF SOLID TUMORS” (Eli Lilly and Company, priority 2016, published 2019).

Columns and labels:
[1] = tested on: human colon carcinoma (EL1989); assay: Tumor growth inhibition, patient-derived tumor model EL1989; type: in vivo; details: EL1989 in mice, oral 10 mg/kg (Q2Dx7), 11-days OFF, 8 mg/kg (Mon, Wed, Fri)x3; p <0.0001
Method: (§1) To evaluate in vivo efficacy and effect of 4,4,4-Trifluoro-N-[(1S)-2-[[(7S)-5-(2-hydroxyethyl)-6-oxo-7H-pyrido[2,3-d][3]benzazepin-7-yl]amino]-1-methyl-2-oxo-ethyl]butanamide on inhibition of Notch processing pharmacodynamics (PD), several cell lines- and patient-derived xenograft models are used. A2780 is a human ovarian cell line (Sigma-Aldrich, No. 93112519); SW480 is a human colorectal cell line (ATCC No. CCL-228); HCT 116 is a human colorectal cell line (ATCC No. CCL-247); U-87 MG is a human glioblastoma cell line (ATCC No. HTB-14); A375 is a human malignant melanoma cell line (ATCC No. CRL-1619); K-562 is a human chronic myelogenous leukemia (CML) cell line characterized by the presence of a fusion transcript comprised of the Bcr and Abl1 genes (ATCC No. CCL-243); Jurkat; HEL 92.1.7 is a human erythroleukemia cell line (ATCC No. TIB-180). […] Tumor growth and body weight are monitored over time to evaluate efficacy and signs of toxicity. Bidimensional measurements of tumors are performed twice a week and tumor volumes are calculated based on the following formula: (Tumor Volume)=[(L)×(W2)×(Π/6)] where L is mid-axis length and W is mid-axis width. […] The log volume data are analyzed with a two-way repeated measures analysis of variance by time and treatment using the MIXED™ procedures in SAS™ software (version 8.2). […]

N1ICD (cleaved Notch1) = assay: N1ICD analysis (ELISA) in xenograft tumors; type: in vivo, human; details: for % N1ICD Inhibition: 10 mg/kg (Q2Dx7), 11-days OFF
Method: (§2) To evaluate in vivo efficacy and effect of 4,4,4-Trifluoro-N-[(1S)-2-[[(7S)-5-(2-hydroxyethyl)-6-oxo-7H-pyrido[2,3-d][3]benzazepin-7-yl]amino]-1-methyl-2-oxo-ethyl]butanamide on inhibition of Notch processing pharmacodynamics (PD), several cell lines- and patient-derived xenograft models are used. A2780 is a human ovarian cell line (Sigma-Aldrich, No. 93112519); SW480 is a human colorectal cell line (ATCC No. CCL-228); HCT 116 is a human colorectal cell line (ATCC No. CCL-247); U-87 MG is a human glioblastoma cell line (ATCC No. HTB-14); A375 is a human malignant melanoma cell line (ATCC No. CRL-1619); K-562 is a human chronic myelogenous leukemia (CML) cell line characterized by the presence of a fusion transcript comprised of the Bcr and Abl1 genes (ATCC No. CCL-243); Jurkat; HEL 92.1.7 is a human erythroleukemia cell line (ATCC No. TIB-180). Each of the cell lines are obtained from the American Type Culture Collection (ATCC) at the ATCC number stated, except the A2780 cell line which is obtained from Sigma-Aldrich at the stated catalog number. The cells are grown in their respective, recommended culture media at 37° C. in 5% CO2 with humidity in the atmosphere. A2780 (2×10^6), SW480 (6×10^6), HCT 116 (6×10^6), U-87 MG (6×10^6), and A-375 (10×10^6) cells in a 1:1 matrigel mix (0.2 mL volume) are implanted by subcutaneous injection in the hind leg of 6-8 weeks of age athymic nude female mice (Harlan Laboratories). K-562 (6×10^6) cells in a 1:1 matrigel mix (0.2 mL volume) are implanted by subcutaneous injection in the hind leg of 6-8 weeks of age CD1 nμ/nμ female mice (Charles River Laboratories). HEL 92.1.7 (7×10^6) in a 1:1 matrigel mix (0.2 mL volume) are implanted by subcutaneous injection in the hind leg of 6-8 weeks of age CB17 severely combined immune deficient female mice (Taconic Farms). Patient-derived tumors are minced into 1-2 mm pieces and mixed with matrigel (1:1) in 0.2 ml volume and implanted by subcutaneous injection in the hind leg of 6-8 weeks of age athymic nude female mice (Harlan Laboratories). Patients-derived tumor models include: human colon carcinoma (EL2144), human triple negative invasive ductal breast carcinoma (EL1997), human colon carcinoma (EL1989, EL 1986), and human glioblastoma (EL 2056) with samples obtained after patient consent and hospital approval from IU Health, Methodist Hospital, Indianapolis, Ind., USA 46206. A total of 7 to 10 mice are used for each group. Just before implantation for A2780, SW480, HEL 92.1.7, A-375, K-562, and patient-derived tumor models, animals are irradiated (450 Total Body Irradiation). Mice are fed ad libitum on normal chow. Treatment is initiated with oral administration (gavage) of compound or vehicle (1% Na-CMC in 0.25% Tween®-80) in 0.2 mL volume when tumor size reached to 150±50 mm^3. At designated time points following treatment, animals are sacrificed by CO2 asphyxiation and cervical dislocation. Tumors are removed and used for PD response analysis. Tumor growth and body weight are monitored over time to evaluate efficacy and signs of toxicity. Bidimensional measurements of tumors are performed twice a week and tumor volumes are calculated based on the following formula: (Tumor Volume)=[(L)×(W2)×(Π/6)] where L is mid-axis length and W is mid-axis width. Tumor volume data are transformed to a log scale to equalize variance across time and treatment groups. The log volume data are analyzed with a two-way repeated measures analysis of variance by time and treatment using the MIXED™ procedures in SAS™ software (version 8.2). The correlation model for the repeated measures is spatial power. Treated groups are compared to the control group at each time point. The MIXED™ procedure is also used separately for each treatment group to calculate adjusted means and standard errors at each time point. Both analyses account for the autocorrelation within each animal and the loss of data that occurs when animals with large tumors are removed from the study early. […]

[2] = tested on: human triple negative invasive ductal breast carcinoma (EL1997); assay: Tumor growth inhibition, patient-derived tumor model EL1997; type: in vivo; details: EL1997 in mice, oral 10 mg/kg (Q2Dx7), 11-days OFF, 8 mg/kg (Mon, Wed, Fri)x4; p <0.0001
Method: as §1

[3] = tested on: SW480 human colorectal cell line; assay: Tumor growth inhibition, SW480 xenograft; type: in vivo; details: SW480 in mice, oral 8 mg/kg, (Mon, Wed, Fri)x5; p <0.0001
Method: as §1

[4] = tested on: A2780 human ovarian cell line; assay: Tumor growth inhibition, A2780 xenograft; type: in vivo; details: for % TGI: A2780 in mice
Method: as §2

[5] = tested on: A375 human malignant melanoma cell line; assay: Tumor growth inhibition, A-375 xenograft; type: in vivo; details: A-375 in mice, oral 8 mg/kg, (Mon, Wed, Fri)x4; p NS
Method: as §1

[6] = tested on: human colon carcinoma (EL2144); assay: Tumor growth inhibition, patient-derived tumor model EL2144; type: in vivo; details: EL2144 in mice, oral 10 mg/kg, Q2Dx8; p <0.0001
Method: as §1

[7] = tested on: HEL 92.1.7 human erythroleukemia cell line; assay: Tumor growth inhibition, HEL 92.1.7 xenograft; type: in vivo; details: HEL 92.1.7 in mice, oral 8 mg/kg, Q2dx14; p NS
Method: as §1

[8] = Homo sapiens, A2780, 4 h, A2780 tumors 4 hours after last dose, Q2Dx13, p <0.0001

## C[C@H](NC(=O)CCC(F)(F)F)C(=O)N[C@@H]1C(=O)N(CCO)c2ncccc2-c2ccccc21 [Compound 1, 4,4,4-trifluoro-N-[(1S)-2-[[(7S)-5-(2-hydroxyethyl)-6-oxo-7H-pyrido[2,3-d][3]benzazepin-7-yl]amino]-1-methyl-2-oxo-ethyl]butanamide]
[1]
  % TGI: 70.42 (<0.0001) %
N1ICD (cleaved Notch1); EL1989 tumors 4 hours after last dose, 8 mg/kg (Mon, Wed, Fri)x3, p <0.0001
  % N1ICD Inhibition: 79.2 (<0.0001) %
N1ICD (cleaved Notch1); EL1997 tumors 4 hours after last dose, 8 mg/kg (Mon, Wed, Fri)x4, p <0.0001
  % N1ICD Inhibition: 67.9 (<0.0001) %
N1ICD (cleaved Notch1); Homo sapiens, 4 h, EL1986 tumors 4 hours after last dose, (Mon, Wed, Fri)x5, p <0.0001
  inhibition at 8 mg/kg: 84.9%
N1ICD (cleaved Notch1); Homo sapiens, 4 h, EL2056 tumors 4 hours after last dose, (Mon, Wed, Fri)x5, p <0.0001
  inhibition at 8 mg/kg: 83.5%
N1ICD (cleaved Notch1); Homo sapiens, A2780, 4 h, A2780 tumors 4 hours after last dose, 1.5 mg/kg, QDx26, p <0.0001
  inhibition at 1.5 mg/kg: 59%
N1ICD (cleaved Notch1); Homo sapiens, A2780, 4 h, A2780 tumors 4 hours after last dose, (BID)QDx7 + (BID)Q2Dx7, p 0.0004
  inhibition at 3 mg/kg: 50.7%
N1ICD (cleaved Notch1); [8]
  inhibition at 3 mg/kg: 58.6%
  inhibition at 8 mg/kg: 71.7%
  inhibition at 10 mg/kg: 74.8%
N1ICD (cleaved Notch1); Homo sapiens, A2780, 4 h, A2780 tumors 4 hours after last dose, QDx21, p <0.0001
  inhibition at 3 mg/kg: 62.8%
N1ICD (cleaved Notch1); Homo sapiens, A2780, 4 h, A2780 tumors 4 hours after last dose, 6 mg/kg, Q2Dx13, p <0.0001
  inhibition at 6 mg/kg: 60.7%
N1ICD (cleaved Notch1); Homo sapiens, A2780, 4 h, A2780 tumors 4 hours after last dose, 7 mg/kg, Q2Dx13, p <0.0001
  inhibition at 7 mg/kg: 65.9%
N1ICD (cleaved Notch1); Homo sapiens, A2780, 4 h, A2780 tumors 4 hours after last dose, Q2Dx11, p <0.0001
  inhibition at 10 mg/kg: 68.5%
N1ICD (cleaved Notch1); Homo sapiens, A2780, 4 h, A2780 tumors 4 hours after last dose, Q3Dx8, p <0.0001
  inhibition at 10 mg/kg: 55.3%
N1ICD (cleaved Notch1); Homo sapiens, A-375, 4 h, A-375 tumors 4 hours after last dose, (Mon, Wed, Fri)x4, p <0.0001
  inhibition at 8 mg/kg: 77.5%
N1ICD (cleaved Notch1); Homo sapiens, HCT-116, 4 h, HCT 116 tumors 4 hours after last dose, (Mon, Wed, Fri)x4, p =0.0005
  inhibition at 8 mg/kg: 73%
N1ICD (cleaved Notch1); Homo sapiens, HEL 92.1.7, 4 h, HEL 92.1.7 tumors 4 hours after last dose, Q2dx14, p <0.0001
  inhibition at 8 mg/kg: 56.7%
N1ICD (cleaved Notch1); Homo sapiens, K562, 4 h, K-562 tumors 4 hours after last dose, (Mon, Wed, Fri)x4, p <0.0001
  inhibition at 8 mg/kg: 47.6%
N1ICD (cleaved Notch1); Homo sapiens, SW480, 4 h, SW480 tumors 4 hours after last dose, (Mon, Wed, Fri)x5, p =0.0002
  inhibition at 8 mg/kg: 72.5%
N1ICD (cleaved Notch1); Homo sapiens, U-87 MG, 4 h, U-87 MG tumors 4 hours after last dose, (Mon, Wed, Fri)x4, p <0.0001
  inhibition at 8 mg/kg: 87.8%
[2]
  % TGI: 80.28 (<0.0001) %
[3]
  % TGI: 61.00 (<0.0001) %
[4]; oral 1.5 mg/kg, QDx26, p <0.05 to <0.01
  % TGI: 33.36 (<0.05 to %
[4]; oral 3 mg/kg, (BID)QDx7 + (BID)Q2Dx7, p <0.0001
  % TGI: 72.35 (<0.0001) %
[4]; oral 3 mg/kg, Q2Dx13, p <0.05 to <0.01
  % TGI: 36.65 (<0.05 to %
[4]; oral 3 mg/kg, QDx21, p <0.0001
  % TGI: 46.60 (<0.0001) %
[4]; oral 6 mg/kg, Q2Dx13, p <0.05 to <0.01
  % TGI: 36.33 (<0.05 to %
[4]; oral 7 mg/kg, Q2Dx13, p <0.0001
  % TGI: 56.95 (<0.0001) %
[4]; oral 8 mg/kg, Q2Dx13, p <0.0001
  % TGI: 68.60 (<0.0001) %
[4]; oral 10 mg/kg, Q2Dx11, p <0.0001
  % TGI: 56.55 (<0.0001) %
[4]; oral 10 mg/kg, Q2Dx13, p <0.0001
  % TGI: 51.11 (<0.0001) %
[4]; oral 10 mg/kg, Q3Dx8, p <0.0001
  % TGI: 32.99 (<0.0001) %
[4]; xenograft models of Table 5
  Effect of alternative dosing regimens on tumor growth inhibition: more frequent dosing affords greater efficacy
[5]
  % TGI: 28.47 (NS) %
[6]
  % TGI: 53.37 (<0.0001) %
[7]
  % TGI: 7.20 (NS) %
